From paper PMC10947197, “Acid‐Resistant BODIPY Amino Acids for Peptide‐Based Fluorescence Imaging of GPR54 Receptors in Pancreatic Islets” (Angewandte Chemie (International Ed. in English), 2023)
Numbered stars: 1 amine (or outer) side, 2 acyl side, 3 side chain; on linkers, the order of the positions; unused ones are H or OH. Square brackets hold non-standard residues; d marks the D form. Peptide text beside a SMILES is read from it. X1 = CC1=CC(C)=[N+]2C1=C(c1cccc(-c3[nH]c4ccccc4c3C[C@H](N[*:1])C(=O)[*:2])c1)c1c(C)cc(C)n1[B-]2(C#N)C#N

Columns and labels:
[1] = target: T1, hGPR54 (Homo sapiens, UniProt Q969F8); test: Calcium mobilization assay in HEK293 cells stably expressing hGPR54; assay type: cell-based; settings: HEK293 cells stably expressing hGPR54, 50,000 cells per well, Fluo4 NW Ca2+ assay kit, GraphPad Prism 9 sigmoidal fit; read-out: EC50 (Ca2+ influx, agonist)
T1 construct: expressed in transfected cells
T1 sequence (Q969F8 whole entry): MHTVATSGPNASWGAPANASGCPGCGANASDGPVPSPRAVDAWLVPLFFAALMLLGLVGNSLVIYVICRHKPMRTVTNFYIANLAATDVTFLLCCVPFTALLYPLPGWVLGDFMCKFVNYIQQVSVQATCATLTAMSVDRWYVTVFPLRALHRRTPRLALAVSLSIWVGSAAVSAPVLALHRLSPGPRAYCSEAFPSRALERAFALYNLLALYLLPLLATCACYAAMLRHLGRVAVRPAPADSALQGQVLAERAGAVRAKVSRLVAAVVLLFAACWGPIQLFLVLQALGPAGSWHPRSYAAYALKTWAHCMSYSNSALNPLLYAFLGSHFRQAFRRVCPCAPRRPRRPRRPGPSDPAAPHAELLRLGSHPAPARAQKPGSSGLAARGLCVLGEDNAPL

[2] = Stability analysis of Trp-BODIPY FlAAs under SPPS conditions; settings: r.t.; for Stability (purity by HPLC-MS): 70 μM; for Chemical stability (HPLC-MS): 70 µM;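 as to all read-outs here: chemical integrity of the BODIPY-labelled tryptophan amino acids checked after exposure to reagents used in solid-phase peptide synthesis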
Protocol: Next, we studied the stability of Trp‐BODIPY PLUS in TFA and compared it to that of Trp‐BODIPY (Table 2).
Analysis of t he chemical st abilit y of T rp-BO DI PY and T rp-
BODIPY PLUS under conve nt ion al SPPS condit i ons. Amino aci ds were di lut ed w it h
dif f erent rea gent mixt ur es (70 µ M , f inal v olum e 10 0 uL) a nd st irre d at r. t . f or 1 h
( c ondit i ons A-B and E-H) or 5 m i n ( c o ndit i ons C an d D).
Fmoc-T rp -BO DI PY(X)2-OH
En t ry Conditions X = F X = CN

[3] = Integrity of BODIPY core in crude peptides after cleavage with 95% TFA (HPLC-MS); assay type: physicochemical; settings: crude peptide
Excerpt: To study the application of Trp‐BODIPY PLUS for SPPS of fluorogenic peptides, we first prepared analogues of the model linear sequence KYRAE, which contains a range of non‐polar, positively‐charged and negatively‐charged residues with different PGs (e.g., Boc, tBu, Pbf). We performed the synthesis using standard Fmoc/tBu SPPS conditions (e.g., OxymaPure and 1‐ cyano‐2‐ethoxy‐2‐oxoethylidenaminooxy)dimethylamino‐mor‐pholino‐carbenium hexafluorophosphate (COMU) for couplings, piperidine:DMF (2 : 8) for Fmoc removal) and introduced Trp‐BODIPY PLUS at the N‐terminal end. We performed the cleavage of the labeled peptide (i.e., W(BODIPYplus)KYRAE, peptide 4, Figure 1) with 95 % TFA and compared the purity of the crude to that obtained when using the acid‐labile Trp‐BODIPY (i.e., W(BODIPY)KYRAE, peptide 5, Figure 1). […] Overall, we isolated the model peptide 4 in good yields >20 % and >95 % purity after HPLC purification (see Supporting Information for synthetic and characterization details).

[4] = test system: apoptotic cells; settings: ref [10e]; cited from earlier work
Excerpt: Next, we assessed whether incorporation of Trp‐BODIPY PLUS enabled retention of the molecular recognition features of bioactive peptides. […] Because Apo‐15 contains one Trp‐BODIPY residue within its sequence, we synthesized the corresponding analogue using Trp‐BODIPY PLUS as the FlAA.

## CC(C)C[C@H](NC(=O)CNC(=O)[C@H](Cc1ccccc1)NC(=O)[C@H](CO)NC(=O)[C@H](CC(N)=O)NC(=O)[C@H](Cc1c[nH]c2ccccc12)NC(=O)[C@H](CC(N)=O)NC(=O)[C@@H](N)Cc1ccc(O)cc1)C(=O)N[C@@H](CCCNC(=N)N)C(=O)N[C@@H](Cc1ccccc1)C(N)=O [KP-10, reference compound]
[1]
  EC50: 0.22 nM

## CC1=CC(C)=[N+]2C1=C(c1cccc(-c3[nH]c4ccccc4c3C[C@H](NC(=O)OCC3c4ccccc4-c4ccccc43)C(=O)O)c1)c1c(C)cc(C)n1[B-]2(F)F [Trp-BODIPY, reference compound]
[2]; 2% N2H4 in DMF, 60 min
  Stability (purity by HPLC-MS): > 95%
[2]; 95% TFA, 2.5% DTT, 60 min, DCM
  Stability (purity by HPLC-MS): < 5%
[2]; 95% TFA, 2.5% H2O, 60 min, DCM
  Stability (purity by HPLC-MS): < 5%
[2]; 95% TFA, 2.5% TIS, 60 min, DCM
  Stability (purity by HPLC-MS): < 5%
[2]; 95% TFA, 5 min, DCM
  Stability (purity by HPLC-MS): < 5%
[2]; 95% TFA, 60 min, DCM
  Stability (purity by HPLC-MS): < 5%
[2]; I2 (5 eq) in MeOH, 60 min
  Stability (purity by HPLC-MS): 38%
[2]; Pd(PPh3)4 (0.1 eq), PhSiH3 (10 eq), 60 min, DCM
  Stability (purity by HPLC-MS): > 95%
[2]; Supplementary Table 2 entry A: 1% TFA, 2.5% DTT, 1 h
  Chemical stability (HPLC-MS): > 95%
[2]; Supplementary Table 2 entry B: 5% TFA, 2.5% DTT, 1 h
  Chemical stability (HPLC-MS): 34%
[2]; Supplementary Table 2 entry C: 95% TFA, 2.5% DTT, 5 min
  Chemical stability (HPLC-MS): 7%
[2]; Supplementary Table 2 entry D: 20% piperidine: DMF, 5 min
  Chemical stability (HPLC-MS): > 95%
[2]; Supplementary Table 2 entry E: 5% NaHCO3 (aq), 1 h
  Chemical stability (HPLC-MS): > 95%
[2]; Supplementary Table 2 entry F: 5% Na2CO3 (aq), 1 h
  Chemical stability (HPLC-MS): > 95%
[2]; Supplementary Table 2 entry G: 1% DIPEA: DMF, 1 h
  Chemical stability (HPLC-MS): > 95%
[2]; Supplementary Table 2 entry H: 0.1 M HOBt: TFE, 1 h
  Chemical stability (HPLC-MS): > 95%
[2]; TBAF (3 eq), 60 min, DCM
  Stability (purity by HPLC-MS): > 95%

## CC1=CC(C)=[N+]2C1=C(c1cccc(-c3[nH]c4ccccc4c3C[C@H](NC(=O)[C@H](CC(N)=O)NC(=O)[C@@H](N)Cc3ccc(O)cc3)C(=O)N[C@@H](CC(N)=O)C(=O)N[C@@H](CO)C(=O)N[C@@H](Cc3ccccc3)C(=O)NCC(=O)N[C@@H](CC(C)C)C(=O)N[C@@H](CCCNC(=N)N)C(=O)N[C@@H](Cc3ccccc3)C(N)=O)c1)c1c(C)cc(C)n1[B-]2(C#N)C#N [peptide 7] (H-YN[X1]NSFGLRF-NH2)
[1]
  EC50: 2.5 nM

## W(BODIPY)KYRAE [peptide 5, model linear peptide KYRAE with acid-labile Trp-BODIPY at the N-terminal end]
[3]
  Stability of BODIPY core after cleavage (in words): completely degraded

## W(BODIPYplus)KYRAE [peptide 4, model linear peptide KYRAE with Trp-BODIPY PLUS at the N-terminal end]
[3]
  Stability of BODIPY core after cleavage (in words): remained fully stable

## cyclo(GRKKWFW(BODIPY)) (head to tail) [Apo-15]
[4]
  Ca2+ dependence of apoptotic cell labelling (in words): independent on the concentration of Ca^2+ ions
  Selective labelling of apoptotic cells (in words): fluorogenic probe for selective labeling of apoptotic cells
